Test system: patients with treatment-resistant depression (TRD)
Test: MADRS total score, phase 2 doubly-randomized dose-response study in TRD (NCT01998958)
Type: in vivo, human
Conditions: for MADRS total score, Mean difference placebo: Period 1 and Period 2 Combined; for MADRS total score: LS mean difference vs placebo, range over esketamine dose groups / Proportion of responders (≥50% improvement in MADRS total score) / Remission (MADRS total score ≤10) / MADRS total score: treatment difference relative to placebo: phase 2; for MADRS total score: LS mean difference vs placebo, range over esketamine dose groups: 28, 56, 84 mg; for Proportion of responders (≥50% improvement in MADRS total score): Period 2 endpoint; for Remission (MADRS total score ≤10): after 2 weeks; for MADRS total score: treatment difference relative to placebo: day 15
Excerpt: In Panel A, reported here, 14 study sites (13 in US, 1 in Belgium) enrolled participants into the study. The study consisted of four phases: 1) screening, 2) double-blind treatment (days 1 to 15), comprised of two 1-week periods (Period 1, Period 2), 3) optional open-label treatment (days 15 to 74) with tapering of intranasal dosing frequency, and 4) post-treatment follow-up (8 weeks). Based on prior studies of ketamine where efficacy was reported after 1-2 doses, the duration of each period in the double-blind phase was 1 week, during which time it was expected that efficacy could be achieved. This design allowed evaluation of the dose(s) needed to proceed to evaluation in phase 3. The purpose of the open-label flexible-dose phase was to evaluate the impact of less frequent dosing on sustaining efficacy.
At the beginning of double-blind Period 1, eligible participants were randomized (3:1:1:1) to intranasal placebo or esketamine 28, 56, or 84 mg, twice weekly (days 1 and 4) based on the first of two computer-generated randomization schedules (Period 1 and Period 2). Randomization was balanced by using randomly permuted blocks and stratified by study center. At the end of Period 1, those randomized to placebo who had moderate-to-severe symptoms (assessed by Quick Inventory of Depressive Symptomatology-Self Report (Trivedi 2016 and Rush, “The 16-item Quick Inventory of Depressive Symptomatology (QIDS) Clinician Rating (QIDS-C) and Self-Report (QIDS-SR): A psychometric evaluation in patients with chronic major depression”, Biol. Psychiatry, 2003, 54(5):573-583) [QIDS-SR16] total score: moderate, 11-16; severe, >16) were re-randomized (1:1:1:1) to intranasal esketamine 28, 56, or 84 mg or placebo, twice weekly (days 8 and 11), while those having mild or no symptoms continued on placebo. To maintain the blind, all participants completed an identical process prior to entry into Period 2, whether or not they were re-randomized. Regardless of response in the double-blind phase, all participants were eligible to enter the optional open-label phase. Esketamine (56 mg) was administered on the first day of the open-label phase (study day 15); subsequent doses could be adjusted (range: 28 to 84 mg) based on investigator's clinical judgment, with administration twice weekly for first 2 weeks, weekly for next 3 weeks, then every 2 weeks thereafter.
Efficacy was assessed with the Montgomery-Asberg Depression Rating Scale (MADRS; Montgomery, “A new depression scale designed to be sensitive to change”, Br. J. Psychiatry, 1979, 134:382-389; Williams, “Development and reliability of a structured interview guide for the Montgomery Asberg Depression Rating Scale (SIGMA)”, Br. J. Psychiatry, 2008, 192(1):52-58) on days 1 (pre-dose and 2 hour post-dose), 2, 8 (pre-dose), 9, and 15, using the structured interview guide (SIGMA). See, Williams 2008.
Efficacy data were analyzed in intent-to-treat (ITT) analysis sets for each period and phase. The ITT analysis sets included all participants who received at least 1 dose of study medication during that period or phase and had baseline and at least one post-baseline MADRS total score within that period or phase.
The primary efficacy endpoint—change from baseline (pre-dose, day 1 in each period) to endpoint (day 8 in each period) in MADRS total score—was analyzed using the analysis of covariance (ANCOVA) model. For Period 1, the model included treatment and country as factors, and baseline MADRS total score as covariate. For Period 2, the model included treatment and country as factors, Period 2 baseline QIDS-SR16 score (moderate or severe), and Period 2 baseline MADRS total score as a continuous covariate.
Given the consistency between Periods 1 and 2 results (Chi 2016), esketamine dose groups were compared to placebo using a combined test on the weighted test statistics for each period in the double-blind treatment phase. […]

[1] = OL endpoint-day 74, Esketamine/Esketamine/OL Esketamine
[2] = OL endpoint-day 74, Placebo/Esketamine/OL Esketamine
[3] = OL endpoint-day 74, Placebo/Placebo/OL Esketamine
[4] = Period 1, 2 hours, esketamine 28 mg
[5] = Period 1, 2 hours, esketamine 56 mg
[6] = Period 1, 2 hours, esketamine 84 mg
[7] = Period 1, 24 hours, esketamine 28 mg
[8] = Period 1, 24 hours, esketamine 56 mg
[9] = Period 1, 24 hours, esketamine 84 mg
[10] = Period 1, study period endpoint (day 8), esketamine 28 mg
[11] = Period 1, study period endpoint (day 8), esketamine 56 mg
[12] = Period 1, study period endpoint (day 8), esketamine 84 mg
[13] = Period 2 (placebo nonresponsive participants re-randomized), 2 hours, esketamine 28 mg
[14] = Period 2 (placebo nonresponsive participants re-randomized), 2 hours, esketamine 56 mg
[15] = Period 2 (placebo nonresponsive participants re-randomized), 2 hours, esketamine 84 mg
[16] = Period 2 (placebo nonresponsive participants re-randomized), 24 hours, esketamine 28 mg
[17] = Period 2 (placebo nonresponsive participants re-randomized), 24 hours, esketamine 56 mg
[18] = Period 2 (placebo nonresponsive participants re-randomized), 24 hours, esketamine 84 mg
[19] = Period 2 (placebo nonresponsive participants re-randomized), study period endpoint (day 15), esketamine 28 mg
[20] = Period 2 (placebo nonresponsive participants re-randomized), study period endpoint (day 15), esketamine 56 mg
[21] = Period 2 (placebo nonresponsive participants re-randomized), study period endpoint (day 15), esketamine 84 mg
[22] = Week 8 (Follow-up), Esketamine/Esketamine/OL Esketamine
[23] = Week 8 (Follow-up), Placebo/Esketamine/OL Esketamine
[24] = Week 8 (Follow-up), Placebo/Placebo/OL Esketamine

CN[C@]1(c2ccccc2Cl)CCCCC1=O [esketamine, (S)-2-(2-chlorophenyl)-2-(methylamino)cyclohexanone]
Remission Rate, No, % [1]: 72.2% | Remission Rate, Yes, % [1]: 27.8% | Response Rate, ≥50% improvement, % [1]: 61.1% | Remission Rate, No, % [2]: 60.0% | Remission Rate, Yes, % [2]: 40.0% | Response Rate, ≥50% improvement, % [2]: 50.0% | Remission Rate, No, % [3]: 66.7% | Remission Rate, Yes, % [3]: 33.3% | Response Rate, ≥50% improvement, % [3]: 100% | Remission Rate, No, % (OL endpoint-day 74, Total): 67.6% | Remission Rate, Yes, % (OL endpoint-day 74, Total): 32.4% | Response Rate, ≥50% improvement, % (OL endpoint-day 74, Total): 64.7% | MADRS total score, LS mean change [4]: −16.4 | MADRS total score, LS mean difference placebo [4]: −6.7 | Remitters, % [4]: (27.3) % | Responders, % [4]: (54.5) % | MADRS total score, LS mean change [5]: −14.3 | MADRS total score, LS mean difference placebo [5]: −4.6 | Remitters, % [5]: (18.2) % | Responders, % [5]: (36.4) % | MADRS total score, LS mean change [6]: −17.6 | MADRS total score, LS mean difference placebo [6]: −7.9 | Remitters, % [6]: (25.0) % | Responders, % [6]: (58.3) % | MADRS total score, LS mean change [7]: −14.8 | MADRS total score, LS mean difference placebo [7]: −9.1 | Remitters, % [7]: (36.4) % | Responders, % [7]: (36.4) % | MADRS total score, LS mean change [8]: −15.7 | MADRS total score, LS mean difference placebo [8]: −10.0 | Remitters, % [8]: (18.2) % | Responders, % [8]: (27.3) % | MADRS total score, LS mean change [9]: −16.4 | MADRS total score, LS mean difference placebo [9]: −10.7 | Remitters, % [9]: (25.0) % | Responders, % [9]: (41.7) % | MADRS total score, LS mean change [10]: −9.8 | MADRS total score, LS mean difference placebo [10]: −5.0 | Remitters, % [10]: (9.1) % | Responders, % [10]: (9.1) % | MADRS total score, LS mean change [11]: −12.4 | MADRS total score, LS mean difference placebo [11]: −7.6 | Remitters, % [11]: (9.1) % | Responders, % [11]: (18.2) % | MADRS total score, LS mean change [12]: −15.3 | MADRS total score, LS mean difference placebo [12]: −10.5 | Remitters, % [12]: (25.0) % | Responders, % [12]: (41.7) % | MADRS total score, Mean difference placebo (esketamine 28 mg): −4.2 | MADRS total score, Mean difference placebo (esketamine 56 mg): −6.3 | MADRS total score, Mean difference placebo (esketamine 84 mg): −9.0 | MADRS total score, LS mean change [13]: −10.3 | MADRS total score, LS mean difference placebo [13]: −3.5 | Remitters, % [13]: (12.5) % | Responders, % [13]: (12.5) % | MADRS total score, LS mean change [14]: −11.7 | MADRS total score, LS mean difference placebo [14]: −4.9 | Responders, % [14]: (22.2) % | MADRS total score, LS mean change [15]: −11.6 | MADRS total score, LS mean difference placebo [15]: −4.9 | Remitters, % [15]: (40.0) % | Responders, % [15]: (40.0) % | MADRS total score, LS mean change [16]: −8.9 | MADRS total score, LS mean difference placebo [16]: −4.8 | MADRS total score, LS mean change [17]: −10.2 | MADRS total score, LS mean difference placebo [17]: −6.1 | Responders, % [17]: (11.1) % | MADRS total score, LS mean change [18]: −11.6 | MADRS total score, LS mean difference placebo [18]: −7.5 | Remitters, % [18]: (20.0) % | Responders, % [18]: (40.0) % | MADRS total score, LS mean change [19]: −7.6 | MADRS total score, LS mean difference placebo [19]: −3.1 | Remitters, % [19]: (12.5) % | Responders, % [19]: (12.5) % | MADRS total score, LS mean change [20]: −8.9 | MADRS total score, LS mean difference placebo [20]: −4.4 | MADRS total score, LS mean change [21]: −11.4 | MADRS total score, LS mean difference placebo [21]: −6.9 | Remitters, % [21]: (20.0) % | Responders, % [21]: (20.0) % | Remission Rate, No, % [22]: 54.5% | Remission Rate, Yes, % [22]: 45.5% | Response Rate, ≥50% improvement, % [22]: 68.2% | Remission Rate, No, % [23]: 75.0% | Remission Rate, Yes, % [23]: 25.0% | Response Rate, ≥50% improvement, % [23]: 25.0% | Remission Rate, No, % [24]: 42.9% | Remission Rate, Yes, % [24]: 57.1% | Response Rate, ≥50% improvement, % [24]: 71.4% | Remission Rate, No, % (Week 8 (Follow-up), Total): 58.5% | Remission Rate, Yes, % (Week 8 (Follow-up), Total): 41.5% | Response Rate, ≥50% improvement, % (Week 8 (Follow-up), Total): 56.1% | MADRS total score: LS mean difference vs placebo, range over esketamine dose groups (Period 1 (baseline to day 8)): −5.0 to −10.5 | MADRS total score: LS mean difference vs placebo, range over esketamine dose groups (Period 2 (day 8 to day 15)): −3.1 to −6.9 | Proportion of responders (≥50% improvement in MADRS total score) (28 mg): 37.5% | Proportion of responders (≥50% improvement in MADRS total score) (56 mg): 36.4% | Proportion of responders (≥50% improvement in MADRS total score) (84 mg): 50.0% | Remission (MADRS total score ≤10) (28 mg): 12.5% | Remission (MADRS total score ≤10) (56 mg): 27.3% | Remission (MADRS total score ≤10) (84 mg): 40.0% | MADRS total score: treatment difference relative to placebo (completers with same treatment 2 weeks, 84 mg): −12.5 | MADRS total score: treatment difference relative to placebo (completers, 28 mg): −6.0 | MADRS total score: treatment difference relative to placebo (completers, 56 mg): −8.3
